Legend:
3T3-L1 adipocytes = test: Glucose uptake enhancing action (in vitro), 3H-2-deoxyglucose uptake in 3T3-L1 adipocytes; format: cell-based; details: 10 μM test compound for 72 hours, insulin added, P<0.001
Experimental: Preadipocyte cell line 3T3-L1 was purchased from the American Type Culture Collection (ATCC). The 3T3-L1 cells were plated onto a 24-well, collagen-coated plate and cultured to saturation in growth medium (DMEM, 25 mM glucose, 10% FCS, 100 u/ml penicillin, 0.1 mg/ml streptomycin) under conditions of 37° C. and 5% CO2. Five days after cell proliferation had reached a saturated state, the medium was replaced with medium (DMEM, 25 mM glucose, 10% FCS, 100 u/ml penicillin, 0.1 mg/ml streptomycin) to which had been added 1 μM insulin, 0.5 mM 3-isobutyl-1-methylxanthine and 1 μM dexamethazone to initiate adipocyte differentiation. Two days later, the medium was replaced with growth medium containing 1 μM insulin followed by additionally culturing the cells for 2 days. Subsequently, the medium was replaced with fresh growth medium every 3 days, and the 3T3-L1 adipocytes were prepared on day 10 after the start of differentiation. […]
Measurement of glucose uptake was carried out in the manner described below. […] 160 μl of the cell lysate were mixed with 4 ml of Hionic Fluor (Perkin-Elmer) liquid scintillation counter cocktail followed by measurement of the radioactivity in the cell lysate with a liquid scintillation counter (Packard). The determined radioactivity of the ^3H-labeled was used as an indicator of the amount of glucose taken up into the cells.

C57BL/ksj-db/db mice [1] = test: Blood glucose levels after administration of pravastatin in feed, C57BL/ksj-db/db mice; format: in vivo, mouse; details: pravastatin mixed in feed (0.03% and 0.06% wt/wt), dose group, non-dose group 633 mg/dl
Experimental: (§1) C57BL/ksj-db/db mice (male, age 5 weeks) and KKAy mice (female, age 4 weeks) were purchased from Clea Japan, and used in the test after acclimating to the test environment for 1 week. The mice were housed 5 animals to a cage and given unrestricted access to feed (F2, Funabashi Farm) and water.
(§2) The body weights of the animals were measured and blood samples were collected on the day the test started, and the animals were divided into two groups of 5 animals per cage based on their body weights and blood glucose levels. Blood samples were collected at the start of the test and days 4, 7 and 14 after the start of the test in the case of the C57BL/ksj-db/db mice, and at the start of the test and on days 4, 7, 14 and 28 after the start of the test in the case of the KKAy mice. Blood samples were collected from the tail vein in an amount equal to one heparinized capillary tube.
(§3) Pravastatin powder was added to the F2 powder to 0.03% and 0.06% (wt/wt), uniformly mixed and provided to the animals in individual cages. The amount of feed and general behaviour were checked at least once a day.
(§4) Blood glucose levels were measured on the days when blood samples were collected.

KKAy mice = test: Blood glucose levels after administration of pravastatin in feed, KKAy mice; format: in vivo, mouse; details: pravastatin mixed in feed (0.03% and 0.06% wt/wt), dose group, non-dose group 521 mg/dl
Experimental: as §1, §2, §3, §4

C57BL/ksj-db/db mice [2] = test: Insulin tolerance test using pravastatin-dosed mice; format: in vivo, mouse; details: pravastatin in feed for 2 weeks, 60 minutes after insulin 1 u/kg i.p., non-dose group 411 mg/dl
Experimental: (§5) A group administered with pravastatin by mixing in feed for 2 weeks and a non-dosed group of C57BL/ksj-db/db mice (n=5) were fasted for 2 hours. After measuring the body weight of each animal, insulin (Humalin, Lilly) was administered intraperitoneally at 1 u/kg, and blood samples were collected from the tail vein immediately before the start of administration and at 30, 60, 90 and 120 minutes after the start of administration followed by measurement of blood glucose levels.

C57BL/ksj-db/db mice [3] = test: Glucose tolerance test using pravastatin-dosed mice; format: in vivo, mouse; details: pravastatin in feed for 2 weeks, 60 minutes after administration (glucose 2 g/kg i.p.), non-dose group 517 mg/dl
Experimental: as §5, with “16 hours starting on the day before the start of the test.” for “2 hours.”, “glucose solution ([…])” for “insulin (Humalin, Lilly)”, “to 2 g/kg,” for “at 1 u/kg,”

[4] = system: C57BL/6J mouse adipocytes; test: Glucose uptake test using isolated adipocytes from pravastatin-dosed C57BL/6J mice; format: in vivo; details: isolated adipocytes from pravastatin-dosed C57BL/6J mice (normal mice), insulin, 3H-2-deoxyglucose
Experimental: (§6) • (i) Epididymal adipose tissue was excised from a group administered with pravastatin for 1 week and a non-dosed group of C57BL/ksj-db/db mice (n=5). The excised adipose tissue was handled under conditions of 37° C. at all times. The adipose tissue was cut into small pieces with a scissors, followed by the addition of medium (DMEM, 1 mM sodium pyruvate, 25 mM HEPES pH 7.4, 0.1% BSA, 100 u/ml penicillin, 0.1 mg/ml streptomycin) containing 1 mg/ml of collagenase I (Worshington), and shaking at 37° C. and 80 rpm. Following the reaction, 2.5 volumes of the aforementioned medium were added, the adipocytes were screened out by passing the cell suspension through a 260 μm mesh sieve, and again passed through a 100 μm mesh sieve to prepare an adipocyte suspension.
(§7) An adipocyte suspension was prepared for C57BL/6J mice (normal mice) in the same manner as described above. • (ii) The glucose uptake test was carried out in the manner as described below. […] After cutting out the oil layer of the upper layer containing adipocytes with a knife, it was transferred to a glass vial containing 4 ml of Hionic Fluor (Perkin-Elmer) liquid scintillation counter cocktail followed by measurement of specific radioactivity. The amount of measured radioactivity of the ^3H-2-deoxyglucose was used as an indicator of the amount of glucose taken up by the cells. […]

[5] = system: C57BL/ksj-db/db mouse adipocytes; test: Glucose uptake test using isolated adipocytes from pravastatin-dosed C57BL/ksj-db/db mice; format: in vivo; details: isolated epididymal adipocytes from C57BL/ksj-db/db mice dosed with pravastatin for 1 week, insulin, 3H-2-deoxyglucose
Experimental: as §6, §7

`CC[C@H](C)C(=O)O[C@H]1C[C@H](O)C=C2C=C[C@H](C)[C@H](CC[C@@H](O)C[C@@H](O)CC(=O)O)[C@H]21` [pravastatin, (+)-(3R,5R)-3,5-dihydroxy-7-[(1S,2S,6S,8S,8aR)-6-hydroxy-2-methyl-8-[(S)-2-methylbutyryloxy]-1,2,6,7,8,8a-hexahydro-1-naphthyl]heptanoic acid] was tested, and the “amount of glucose uptake into the cells relative to control group” value (3T3-L1 adipocytes) was 1.9 times, the blood glucose level (C57BL/ksj-db/db mice [1]) was 438 mg/dL and the blood glucose level (KKAy mice) was 351 mg/dL. For the same compound, the “blood glucose level in insulin tolerance test” value (C57BL/ksj-db/db mice [2]) was 324 mg/dL, the “blood glucose level in glucose tolerance test” value (C57BL/ksj-db/db mice [3]) was 342 mg/dL and the “amount of glucose uptake by dose group relative to non-dose group” value [4] was 1.4 times. For the same compound, the “amount of glucose uptake by dose group relative to non-dose group” value [5] was 2.0 times.
